# Measurements reported in patent publication US6420395B1, “Azacyclooctane and heptane derivatives, their preparation and use in therapy” (Neurosearch A/S, priority 1997, dated 2002).
# Where a name gives a salt, the structure may show the parent alone. Read-outs that look alike come from different tables or passages of the source.
# Key:
# [1] = molecular target: nicotinic ACh receptors comprised of α4 and β2 subunits (3H-cytisine binding site) (Rattus norvegicus, UniProt P09483+P12390); test: In vitro inhibition of 3H-cytisine binding
# nicotinic ACh receptors comprised of α4 and β2 subunits (3H-cytisine binding site), sequence (P09483 31-630): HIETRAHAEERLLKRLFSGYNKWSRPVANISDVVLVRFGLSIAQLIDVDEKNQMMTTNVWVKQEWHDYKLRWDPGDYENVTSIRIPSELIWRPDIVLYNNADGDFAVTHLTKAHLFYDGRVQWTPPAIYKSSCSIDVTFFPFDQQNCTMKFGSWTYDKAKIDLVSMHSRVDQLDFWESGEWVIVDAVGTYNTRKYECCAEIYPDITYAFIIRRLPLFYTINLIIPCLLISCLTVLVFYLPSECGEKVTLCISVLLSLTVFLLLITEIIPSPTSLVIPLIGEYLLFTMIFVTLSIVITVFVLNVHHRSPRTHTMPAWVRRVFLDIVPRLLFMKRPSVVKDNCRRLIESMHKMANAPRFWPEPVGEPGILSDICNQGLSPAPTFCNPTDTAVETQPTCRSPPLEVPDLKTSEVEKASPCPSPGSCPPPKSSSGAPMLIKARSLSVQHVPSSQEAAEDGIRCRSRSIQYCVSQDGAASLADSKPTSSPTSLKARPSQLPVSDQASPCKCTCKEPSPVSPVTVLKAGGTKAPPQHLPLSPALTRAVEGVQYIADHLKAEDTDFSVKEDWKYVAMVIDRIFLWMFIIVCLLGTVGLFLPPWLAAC
# nicotinic ACh receptors comprised of α4 and β2 subunits (3H-cytisine binding site), sequence (P12390 25-500): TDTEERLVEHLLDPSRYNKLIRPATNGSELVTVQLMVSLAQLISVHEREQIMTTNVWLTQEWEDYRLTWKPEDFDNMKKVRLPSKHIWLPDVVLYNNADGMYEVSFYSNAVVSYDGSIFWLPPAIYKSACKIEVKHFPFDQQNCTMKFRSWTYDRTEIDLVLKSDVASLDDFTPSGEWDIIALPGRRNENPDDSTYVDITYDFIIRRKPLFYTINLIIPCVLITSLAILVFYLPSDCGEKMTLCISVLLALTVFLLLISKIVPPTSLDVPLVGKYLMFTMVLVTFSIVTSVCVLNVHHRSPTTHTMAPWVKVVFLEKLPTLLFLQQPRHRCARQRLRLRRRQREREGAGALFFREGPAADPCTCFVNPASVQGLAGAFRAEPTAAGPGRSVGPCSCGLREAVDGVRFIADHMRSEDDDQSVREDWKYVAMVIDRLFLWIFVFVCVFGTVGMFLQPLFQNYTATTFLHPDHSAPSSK
# Experimental: In vitro inhibition of ^3H-cytisine binding
# The predominant subtype with high affinity for nicotine is comprised of α4 and β2 subunits. nAChRs of the latter type can selectively be labelled by the nicotine agonist ^3H-cytisine.
# Preparations are performed at 0-4° C. unless otherwise indicated. […] The homogenate is centrifuged at 27,000×g for 10 min. The supernatant is discarded and the pellet is resuspended in fresh buffer and centrifuged a second time. The final pellet is resuspended in fresh buffer (35 ml per g of original tissue) and used for binding assays.
# Aliquots of 500 μl homogenate are added to 25 μl of test solution and 25 μl of ^3H-cytisine (1 nM, final concentration), mixed and incubated for 90 min at 2° C. Non-specific binding is determined using (−)-nicotne (100 μM, final concentration). After incubation the samples are added 5 ml of ice-cold buffer and poured directly onto Whatman GF/C glass fibre filters under suction and immediately washed with 2×5 ml ice-cold buffer. The amount of radioactivity on the filters is determined by conventional liquid scintillation counting. Specific binding is total binding minus non-specific binding.
# [2] = molecular target: nAChR formed by the α7 subunit (3H-α-bungarotoxin binding site) (Rattus norvegicus, UniProt Q05941); test: biochemical
# nAChR formed by the α7 subunit (3H-α-bungarotoxin binding site), sequence (Q05941 23-502): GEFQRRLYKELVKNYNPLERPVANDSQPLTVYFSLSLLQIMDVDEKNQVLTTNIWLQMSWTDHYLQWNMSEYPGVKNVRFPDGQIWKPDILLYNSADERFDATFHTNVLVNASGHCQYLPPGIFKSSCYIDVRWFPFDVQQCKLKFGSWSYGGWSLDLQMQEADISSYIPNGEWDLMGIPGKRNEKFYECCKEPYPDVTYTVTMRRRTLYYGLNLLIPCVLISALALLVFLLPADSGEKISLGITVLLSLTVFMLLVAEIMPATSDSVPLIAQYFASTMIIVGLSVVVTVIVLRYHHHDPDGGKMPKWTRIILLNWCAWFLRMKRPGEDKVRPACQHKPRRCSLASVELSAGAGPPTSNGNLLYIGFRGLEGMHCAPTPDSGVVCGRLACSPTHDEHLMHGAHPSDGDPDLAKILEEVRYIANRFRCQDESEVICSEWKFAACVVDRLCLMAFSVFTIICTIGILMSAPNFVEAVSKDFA
# [3] = approximate potency relative to morphine; cited from earlier work
# [4] = read-out: 3H-α-bungarotoxin IC50
# [5] = rat cerebral cortex homogenate, 1 nM 3H-cytisine, 90 min at 2° C., read-out: 3H-cytisine IC50
smiles,measurement,setting,value
"c1cncc(C2CCCCCCN2)c1 (racemic) (as salt: fumaric acid salt) [Compound 1a, (R,S)-1-H-2-(3-pyridyl)azacyclooctane fumaric acid salt]",melting point,,141 to 142 °C
"c1ccc2ncc(C3CCCCCCN3)cc2c1 (racemic) (as salt: fumaric acid salt) [Compound 3a, (R,S)-1-H-2-(3-quinolinyl)azacyclooctane fumaric acid salt]",melting point,,172 to 174 °C
"CCSc1cncc(C2CCCCCN2)c1 (racemic) (as salt: fumaric acid salt) [Compound 5a, (R,S)-1-H-2-(5-thioethyl-3-pyridyl)azacycloheptane fumaric acid salt]",melting point,,159 to 161 °C
"CCSc1cncc(C2CCCCCCN2C)c1 (racemic) (as salt: fumaric acid salt) [Compound 5b, (R,S)-1-Methyl-2-(5-thioethyl-3-pyridyl)azacyclooctane fumaric acid salt]",melting point,,143.5 to 145.5 °C
"c1cncc(C2CCCCCCN2)c1 (racemic) [Compound 1a, (R,S)-1-H-2-(3-pyridyl)azacyclooctane fumaric acid salt]",IC50,[1],200 nM
same,IC50,[2]; [4],2 µM
"CN1CCCCCCC1c1cccnc1 (racemic) [Compound 1b, (R,S)-1-Methyl-2-(3-pyridyl)azacyclooctane]",IC50,[1],560 nM
same,IC50,[2]; [4],67 µM
"c1ccc2ncc(C3CCCCCCN3)cc2c1 (racemic) [Compound 3a, (R,S)-1-H-2-(3-quinolinyl)azacyclooctane fumaric acid salt]",IC50,[1]; [5],1300 nM
same,IC50,[2],> 30 µM
"CCSc1cncc(C2CCCCCN2)c1 (racemic) [Compound 5a, (R,S)-1-H-2-(5-thioethyl-3-pyridyl)azacycloheptane fumaric acid salt]",IC50,[1]; [5],4300 nM
same,IC50,[2],> 30 µM
"CCSc1cncc(C2CCCCCCN2C)c1 (racemic) [Compound 5b, (R,S)-1-Methyl-2-(5-thioethyl-3-pyridyl)azacyclooctane fumaric acid salt]",IC50,[1]; [5],1950 nM
"CCSc1cncc(C2CCCCCCN2)c1 (racemic) [Compound 6a, (R,S)-1-H-2-(5-thioethyl-3-pyridyl)azacyclooctane]",IC50,[1]; [5],1000 nM
"c1cncc(C2=NCCCCCC2)c1 [Compound 1c, 2-(3-Pyridyl)azacyclooct-1-ene]",IC50,[1],59 nM
same,IC50,[2]; [4],1.4 µM
Clc1ccc(C2CC3CCC2N3)cn1 (centres unmarked) [Epibatidine],"analgesic potency, times that of morphine",[3],~500 times
